ChEMBL document CHEMBL1201862, “PubChem BioAssay data set” (2004)
Activity calls are given as the source filed them.

Assays:
[1] = target: Metabotropic glutamate receptor 3 (Rattus norvegicus, UniProt P31422); assay: mGlu3 negative allosteric modulator potency, dose response, HEK/GIRK cells, thallium flux, rat (AID 651839); type: functional
[2] = target: Potassium channel subfamily K member 3 (Homo sapiens, UniProt O14649); assay: TASK1 (KCNK3) potassium channel inhibitors, SAR follow-up, CHO cells, FluxOR thallium flux (AID 652212); type: functional
[3] = target: Potassium channel subfamily K member 9 (Homo sapiens, UniProt Q9NPC2); assay: TASK3 (KCNK9) channel inhibitors, thallium flux, SAR follow-up, selectivity assay for TASK1 inhibitor project, cell-based, FluxOR thallium flux, concentration-response (AID 652211); type: functional;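 note: potency is for inhibitors of the channel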
[4] = target: Metabotropic glutamate receptor 5 (Rattus norvegicus, UniProt P31424); assay: Identification of a glycine sulfonamide based non-MPEP site positive allosteric potentiator (PAM) of mGlu5 (calcium_assay).; type: functional
[5] = target: T1, Oxysterols receptor LXR-beta (Homo sapiens, UniProt P55055); type: functional, cell-based;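 note: agonist activity at LXR measured by a cell-based luminescence readout across a dose range, run as a counterscreen for daf-12 agonists; HEK293 cells with Gal4-LXR fusion and GAL4-driven luciferase reporter; potency for activation of Gal4-LXR reporter so compounds are agonists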
T1 sequence (P55055 whole entry): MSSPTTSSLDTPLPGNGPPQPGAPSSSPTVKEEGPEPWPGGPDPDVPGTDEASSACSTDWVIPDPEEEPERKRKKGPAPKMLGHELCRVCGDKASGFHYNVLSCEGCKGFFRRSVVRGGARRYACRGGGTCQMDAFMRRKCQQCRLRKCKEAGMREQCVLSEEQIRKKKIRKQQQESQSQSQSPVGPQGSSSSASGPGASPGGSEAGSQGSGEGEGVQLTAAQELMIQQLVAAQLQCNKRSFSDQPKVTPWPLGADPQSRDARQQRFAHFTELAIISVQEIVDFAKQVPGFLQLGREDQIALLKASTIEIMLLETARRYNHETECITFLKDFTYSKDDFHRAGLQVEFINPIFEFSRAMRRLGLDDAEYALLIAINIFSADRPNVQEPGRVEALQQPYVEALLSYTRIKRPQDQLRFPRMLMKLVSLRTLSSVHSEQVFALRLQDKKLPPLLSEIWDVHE

[6] = CEM21 cell cytotoxicity, dose response, cytotoxicity control, plate reader, dry powder (AID 687026); type: functional, cell-based
[7] = target: Cytochrome P450 2C19 (Homo sapiens, UniProt P33261); assay: qHTS Assay for Inhibitors and Substrates of Cytochrome P450 2C19. [Related pubchem assays: 410 ]; type: ADME; conditions: read-out: Potency
[8] = target: Cytochrome P450 3A4 (Homo sapiens, UniProt P08684); conditions: Potency;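 note: confirmatory qHTS run detecting inhibitors and substrates of CYP3A4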
Sequence of Cytochrome P450 3A4 (P08684 whole entry): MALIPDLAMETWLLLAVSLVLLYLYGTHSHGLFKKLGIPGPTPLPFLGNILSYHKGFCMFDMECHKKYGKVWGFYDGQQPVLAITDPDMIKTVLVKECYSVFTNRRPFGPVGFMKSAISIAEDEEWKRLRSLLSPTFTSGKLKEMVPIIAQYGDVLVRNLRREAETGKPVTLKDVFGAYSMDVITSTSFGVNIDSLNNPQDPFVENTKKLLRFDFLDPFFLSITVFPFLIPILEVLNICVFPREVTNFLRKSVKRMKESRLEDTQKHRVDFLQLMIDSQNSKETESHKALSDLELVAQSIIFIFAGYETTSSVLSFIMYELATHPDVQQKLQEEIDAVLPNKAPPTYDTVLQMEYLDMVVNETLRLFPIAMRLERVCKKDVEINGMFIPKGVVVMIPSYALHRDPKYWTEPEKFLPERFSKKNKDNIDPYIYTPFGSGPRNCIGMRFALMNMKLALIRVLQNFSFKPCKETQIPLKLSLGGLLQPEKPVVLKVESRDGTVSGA

Sequence of Potassium channel subfamily K member 3 (O14649 whole entry): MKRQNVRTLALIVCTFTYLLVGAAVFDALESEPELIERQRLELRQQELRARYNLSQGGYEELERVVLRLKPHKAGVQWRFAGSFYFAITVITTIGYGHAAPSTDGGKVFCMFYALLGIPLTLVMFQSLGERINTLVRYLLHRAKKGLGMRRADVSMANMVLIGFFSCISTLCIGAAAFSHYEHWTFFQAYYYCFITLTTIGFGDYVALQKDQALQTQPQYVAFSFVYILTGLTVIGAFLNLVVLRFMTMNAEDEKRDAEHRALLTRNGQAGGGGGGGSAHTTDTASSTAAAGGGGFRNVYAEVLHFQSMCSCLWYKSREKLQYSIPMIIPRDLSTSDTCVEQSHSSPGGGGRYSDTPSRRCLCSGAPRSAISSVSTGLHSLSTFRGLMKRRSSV
Sequence of Cytochrome P450 2C19 (P33261 whole entry): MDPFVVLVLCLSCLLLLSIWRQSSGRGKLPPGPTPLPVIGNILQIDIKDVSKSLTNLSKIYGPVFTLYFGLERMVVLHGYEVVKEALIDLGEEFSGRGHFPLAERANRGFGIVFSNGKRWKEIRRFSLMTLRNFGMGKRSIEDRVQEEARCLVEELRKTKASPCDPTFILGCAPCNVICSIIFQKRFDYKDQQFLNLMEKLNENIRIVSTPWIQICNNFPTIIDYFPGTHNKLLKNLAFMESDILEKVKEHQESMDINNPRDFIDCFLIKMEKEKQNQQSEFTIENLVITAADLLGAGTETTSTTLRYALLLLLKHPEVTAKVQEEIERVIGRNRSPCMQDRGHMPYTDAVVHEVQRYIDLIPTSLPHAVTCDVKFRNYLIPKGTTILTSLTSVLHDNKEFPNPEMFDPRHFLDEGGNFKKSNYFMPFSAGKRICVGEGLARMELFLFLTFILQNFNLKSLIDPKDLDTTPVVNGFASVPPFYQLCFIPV
Sequence of Potassium channel subfamily K member 9 (Q9NPC2 whole entry): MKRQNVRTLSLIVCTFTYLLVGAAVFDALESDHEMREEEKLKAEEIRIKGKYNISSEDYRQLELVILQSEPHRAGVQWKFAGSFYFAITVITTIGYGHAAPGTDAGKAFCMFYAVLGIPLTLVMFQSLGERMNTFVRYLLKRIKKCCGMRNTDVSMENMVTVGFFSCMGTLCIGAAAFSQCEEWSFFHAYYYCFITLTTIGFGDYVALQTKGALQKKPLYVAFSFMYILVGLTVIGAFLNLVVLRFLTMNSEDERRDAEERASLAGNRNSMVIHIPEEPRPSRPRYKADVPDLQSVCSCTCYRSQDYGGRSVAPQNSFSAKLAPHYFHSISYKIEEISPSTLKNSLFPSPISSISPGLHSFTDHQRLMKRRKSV
Sequence of Metabotropic glutamate receptor 3 (P31422 whole entry): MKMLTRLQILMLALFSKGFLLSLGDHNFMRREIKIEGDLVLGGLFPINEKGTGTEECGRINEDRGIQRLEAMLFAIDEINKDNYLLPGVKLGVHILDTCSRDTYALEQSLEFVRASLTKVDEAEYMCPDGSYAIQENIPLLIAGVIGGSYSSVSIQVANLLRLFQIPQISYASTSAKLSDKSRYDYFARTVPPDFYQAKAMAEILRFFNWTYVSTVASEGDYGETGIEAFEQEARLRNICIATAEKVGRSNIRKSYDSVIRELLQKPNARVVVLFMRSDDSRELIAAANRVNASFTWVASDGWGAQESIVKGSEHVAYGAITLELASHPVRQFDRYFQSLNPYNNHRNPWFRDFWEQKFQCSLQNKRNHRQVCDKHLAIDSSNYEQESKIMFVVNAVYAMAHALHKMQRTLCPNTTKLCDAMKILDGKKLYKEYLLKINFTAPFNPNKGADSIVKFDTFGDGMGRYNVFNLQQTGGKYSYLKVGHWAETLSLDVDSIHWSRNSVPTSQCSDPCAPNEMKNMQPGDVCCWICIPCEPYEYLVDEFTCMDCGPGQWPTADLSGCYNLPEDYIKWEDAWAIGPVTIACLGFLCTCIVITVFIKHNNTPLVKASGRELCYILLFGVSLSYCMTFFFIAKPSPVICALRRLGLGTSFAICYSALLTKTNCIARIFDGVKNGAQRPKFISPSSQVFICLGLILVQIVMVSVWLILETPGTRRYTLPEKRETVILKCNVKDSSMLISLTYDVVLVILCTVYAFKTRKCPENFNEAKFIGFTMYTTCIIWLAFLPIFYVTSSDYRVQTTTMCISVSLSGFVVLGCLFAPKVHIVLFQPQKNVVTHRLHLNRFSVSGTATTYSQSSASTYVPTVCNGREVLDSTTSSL
Sequence of Metabotropic glutamate receptor 5 (P31424 whole entry, the tested form may be a part): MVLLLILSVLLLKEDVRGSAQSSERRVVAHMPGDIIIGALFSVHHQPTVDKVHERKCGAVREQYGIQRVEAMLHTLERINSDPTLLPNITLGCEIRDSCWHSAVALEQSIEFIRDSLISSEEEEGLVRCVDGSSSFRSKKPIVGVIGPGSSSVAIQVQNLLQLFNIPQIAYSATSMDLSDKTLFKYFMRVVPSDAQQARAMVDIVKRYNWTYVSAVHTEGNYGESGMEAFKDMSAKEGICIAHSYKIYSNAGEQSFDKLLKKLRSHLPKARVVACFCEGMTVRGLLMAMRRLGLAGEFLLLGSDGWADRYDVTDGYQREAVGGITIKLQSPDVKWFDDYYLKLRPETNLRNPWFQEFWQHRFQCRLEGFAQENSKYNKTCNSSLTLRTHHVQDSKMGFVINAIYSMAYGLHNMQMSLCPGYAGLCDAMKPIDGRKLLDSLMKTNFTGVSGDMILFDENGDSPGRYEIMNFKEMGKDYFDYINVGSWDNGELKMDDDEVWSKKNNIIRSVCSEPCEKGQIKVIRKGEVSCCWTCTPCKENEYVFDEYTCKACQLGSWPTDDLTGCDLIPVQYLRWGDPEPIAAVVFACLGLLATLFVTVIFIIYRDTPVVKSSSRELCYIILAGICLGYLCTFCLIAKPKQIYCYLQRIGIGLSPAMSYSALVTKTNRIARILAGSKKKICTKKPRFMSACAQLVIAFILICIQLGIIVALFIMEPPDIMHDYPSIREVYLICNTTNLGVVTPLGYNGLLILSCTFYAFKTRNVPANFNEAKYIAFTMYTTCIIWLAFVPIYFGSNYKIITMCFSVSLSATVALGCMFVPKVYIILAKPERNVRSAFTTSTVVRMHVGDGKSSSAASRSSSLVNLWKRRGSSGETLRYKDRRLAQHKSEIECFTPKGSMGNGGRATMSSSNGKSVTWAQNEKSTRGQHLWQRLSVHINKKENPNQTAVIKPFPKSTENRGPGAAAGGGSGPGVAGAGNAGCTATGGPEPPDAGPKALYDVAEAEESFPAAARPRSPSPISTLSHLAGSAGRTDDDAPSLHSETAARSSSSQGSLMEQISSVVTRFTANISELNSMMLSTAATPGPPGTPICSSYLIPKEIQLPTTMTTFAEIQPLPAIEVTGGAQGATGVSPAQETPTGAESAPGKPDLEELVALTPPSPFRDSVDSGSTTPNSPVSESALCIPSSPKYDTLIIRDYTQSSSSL

For `COc1ccc(-c2ccc3cc(C(=O)N4CCCC(CO)C4)ccc3c2)c(OC)c1` (stereo not drawn), the IC50 [1] was 9.87 µM (active).

In the case of `COc1ccccc1C(=O)Nc1cccc(NC(=O)c2cccc3ccccc23)c1`, the IC50 [2] is reported as 0.003 µM (active) and the IC50 [3] is reported as 0.24 µM (active).

For `CC(C(=O)Nc1ccc(F)nc1)N(c1ccccc1Cl)S(C)(=O)=O` (stereo not drawn), the EC50 [4] was 10 µM (inconclusive).

With `Cc1scc(C(=O)N/N=C/c2ccsc2)c1C` the EC50 [5] was > 67.6 µM (inactive).

In the case of `N=C1Sc2ccccc2C2=NCCCN12`, the AC50 [6] is reported as > 70 µM (inactive), the AC50 [7] is reported as 6.31 µM (inconclusive) and the AC50 [8] is reported as 25.1 µM (inconclusive).
